This assay is described as follows: Test 1: Oxidation of 2,2,6,6-tetramethylpiperidine (TEMP), EPR detection of TEMPO. Conditions: porphyrin compound at 0.5 μM, 50 mM TEMP, phosphate buffer pH 7.4, oxygen-saturated, daylight, 1 hour. On the procedure:
The oxidizing agent used in this test is dissolved oxygen. A solution comprising a phosphate buffer (pH 7.4), 50 mM of the compound 2,2,6,6-tetramethylpiperidine (TEMP) and a porphyrin compound at 0.5 μM is prepared. The solution is saturated with oxygen. The solution is placed in daylight. After 1 hour, electron paramagnetic resonance (EPR) spectrometry of the oxidized form of the compound 2,2,6,6-tetramethylpiperidine (TEMP), which corresponds to the compound […], known as TEMPO, is performed. In accordance with the scientific publication Lion et al., 1976; Moan and Wold, 1979, the presence of the compound in TEMPO form is indicative of the oxidation produced by oxygen on the compound 2,2,6,6-tetramethylpiperidine and thus of the catalytic effect of the porphyrin compound. […] With a porphyrin compound according to the invention, the appearance of the TEMPO compound is observed after 1 hour of placing in contact.

Consider copper chlorophyllin, for which the “catalytic oxidation activity: formation of the TEMPO compound from TEMP (test 1)” value was “does not lead to the formation of the TEMPO compound”.
